# Patent US7470669B2, “Isolated polypeptide comprising a leptin fragment” (Serono Genetics Institute, S.A., priority 1999, dated 2008)
# Key:
# [1] = tested on: db/db mice; test: Postprandial plasma TG response after high-fat test meal in db/db mice; type: in vivo, mouse
# Description: FIGS. 1A and 1B show the effect of leptin on postprandial plasma TG response in db/db and db^Pas/db^Pas mice. Overnight-fasted db/db (A), db^Pas/db^Pas (B) mice were gavage-fed a high-fat test meal and immediately injected intravenously (db/db) or intraperitoneally (db^Pas/db^Pas) with saline (open symbols) or 50 μg mouse recombinant leptin (closed symbols). At the indicated times, blood was collected from the tail (A) or orbital (B) vein, plasma was separated by centrifugation, and plasma TG concentrations were determined using an enzymatic kit. Each point represents the mean±SEM (db/db: saline, n=4, leptin, n=3; db^Pas/db^Pas: saline, n=6, leptin, n=7). The average plasma lipid response in 10 control C57BL6 mice is shown as a dotted line in both A and B. In a separate experiment, shown as an inset for each strain of mice, overnight fasted db/db (●) or db^Pas/db^Pas (▪) mice were gavage-fed the test meal and immediately injected intravenously with increasing concentrations of leptin. The plasma lipid response was then measured as in A and B. The area under the response curve (AUC) was then calculated using a triangulation method on Microsoft Excel between 0 and 4 hr (mg TG·h/mL). Values are presented as % of control value (test meal alone obtained in A or B). Each point represents the mean of at least 3 mice.
# Mice that were fasted for 2-3 hours were gavage-fed 300 μL of a test meal consisting of 60% fat (37% saturated, 27% mono-, and 36% polyunsaturated fatty acids), 20% protein and 20% carbohydrate, and providing 56 kcal of energy/kg (1.5 g butter, 1.5 g sunflower oil, 2.5 g nonfat dry milk, 2.5 g sucrose and 3 ml water). Immediately after the meal, the animals were injected intravenously (db/db) or intraperitoneally (db^Pas/db^Pas) with either 200 μL physiological saline or 200 μL of the same solution containing recombinant mouse leptin. […] TG concentrations were determined using a commercially available enzymatic kit with controls included in each assay (Precinorm L, Roche-Boehringer Mannheim; Lyotrol N, BioMérieux). […]
# [2] = tested on: lipase; test: Postheparin lipolytic activity in db^Pas/db^Pas mice; type: in vivo, mouse; conditions: 50 μg/animal, t=2 h after test meal
# Description: FIG. 12 contains a Table that presents results showing the effect of test meal with and without leptin injection on postheparin lipolytic activity in db^Pas/db^Pas mice. Animals were gavaged with the test-meal and injected at the same time with 50 μg leptin or physiological saline as described previously (t=0 h). After 1 h, the mice were injected with heparin and blood samples were taken at the peak of postprandial triglyceridemia (t=2 h). Lipase activity was measured in the postheparin plasma as described in the Examples section herein, and is reported here as the mean±SEM (n=3 animals for each condition; ns=not significant).
# Mice were gavage-fed and injected with leptin or control solutions as described above. At t=1 h, the mice were injected subcutaneously with heparin (100 IU/kg body weight). At t=2 h, the animals were bled and the plasma was immediately separated by centrifugation. Lipase activity was determined according to Iverius and Brunzell (1985) using 20% Lipoven (Fresenius France Pharma, Louviers, France) as the source of TG. The assay was performed using 25 μL postheparin plasma in 0.15 M NaCl (200 μL total volume), and in the presence of 10 μL heat-inactivated (56° C., 30 min) human plasma as a source of apoC's. Before and at the end of the incubation, FFA concentrations were determined using an enzymatic kit.
substance,measurement,setting,value
"leptin: plasma protein of 16 kDa produced by adipocytes; recombinant human or mouse leptin, species depends on the experiment",area under the TG curve,"[1]; 250 ng leptin per animal, AUC 0-4 h",significant reduction
same,decrease of the area under the postprandial TG curve,[1]; 500 ng leptin per animal (maximum effect),> 80%
same,amplitude of the triglyceride response,[1]; single bolus 50 μg mouse recombinant leptin i.v. at time of test meal,decreased the amplitude of the triglyceride response
same,lipase activity released in serum after heparin injections,[2],did not significantly modify lipase activity
